Test results: US7094428B2, “Hemostatic compositions, devices and methods” (The University of Medicine and Dentistry of New Jersey, priority 2000, dated 2006)

What was measured:
[1] = test system: recalcified, citrated whole blood; assay: SONOCLOT clotting time of recalcified, citrated whole blood; type: biochemical
Experimental: In such studies, anti-coagulated, citrated whole blood is recalcified to initiate the clotting process in a device which sensitively monitors the formation of the clot. Studies have been expanded from whole blood to include plasma.
(§1) Results were expressed as clotting time in seconds. […] Results are expressed as mean±standard deviation.
(§2) Silver (I) ion was provided as silver nitrate, 5% stock solution. It was diluted 100 fold to 0.05%, or in some cases to 0.01% in the clotting studies. In perfusion studies, a 10 μl aliquot of the solution was applied to the filter paper then dried.
Collagen was from Sigma Chemical Co. […] Heparinase was from Haemoscope Corp. and used at a final concentration of 1 U/mL.

[2] = test system: citrated blood anticoagulated with heparin; assay: SONOCLOT clotting (recalcification) time of heparinized citrated blood; type: biochemical
Experimental: as §1, §2
Collagen was from Sigma Chemical Co. In the clotting time studies, the final concentration of collagen was 0.1-0.2%. Heparinase was from Haemoscope Corp. and used at a final concentration of 1 U/mL.
Recalcification time was measured.

[3] = test system: recalcified, citrated whole blood; assay: Blood perfusion (spread of blood disk) on filter paper impregnated with the composition
Experimental: as §1, §2
The size of the blood disk on the paper was measured.

[4] = test system: Platelet Rich Plasma (PRP); conditions: 2.9 mM AgNO3, n = 8
Experimental: (§3) The hemostatic compositions of the invention were evaluated in two different systems. In one system, clotting time of recalcified, citrated whole blood in the presence of the hemostatic composition was determined using a SONOCLOT Coagulation Analyzer (Sienco Inc., Wheat Ridge Colo.). […] Results were expressed as clotting time in seconds. In a second system, the hemostatic composition was dried on a cellulose matrix (filter paper), and 7 μl aliquot of fresh blood or recalcified citrated whole blood was placed in the cellulose matrix; resulting in the spreading (perfusion) of the applied blood as an enlarging disk. Upon clotting or reduced perfusion, the further spread of the blood ceases. The surface area of the spread blood in mm^2 is used as an indication of the clotting rate of the blood. Results are expressed as mean±standard deviation. The number of samples run is indicated at the top of each data column.
(§4) This study was undertaken using platelet-rich and platelet-poor plasma to simulate an individual with normal and reduced platelet levels.

[5] = test system: Platelet Poor Plasma (PPP); conditions: 2.9 mM AgNO3, n = 8
Experimental: as §3, §4

[6] = thrombin 0.025 U/mL final, silver ion 2.9 mM final, n = 8
[7] = final concentration in blood: 1% collagen, 0.6 mM AgNO3 or the combination as labelled, n = 41
[8] = Study I, filter paper impregnated with 5% AgNO3, 2% collagen or the combination as labelled, n = 13
[9] = Study II, filter paper impregnated with 5% AgNO3, 2% collagen or the combination as labelled, n = 5

thrombin showed a Clotting time [1, 6] of 156 ± 42 s.
For `O=[N+]([O-])[O-].[Ag+]` [silver(I), silver nitrate], the Clotting time [1, 7] was 220 ± 50 s, the “clot strength, SONOCLOT tracing” value ([1]; non-heparinized blood) was “the clot is stronger” and the Clotting time ([1]; non-heparinized blood, without silver 217 seconds) was 81 s. The Clotting time ([1]; normal blood, 2.9 mM AgNO3, n = 8) was 109 ± 20 s, the Clotting time ([1]; recalcified citrated whole blood, heparin not given, silver nitrate 0.05% (in some cases 0.01%), heparinase 1 U/mL, n = 5) was 94 ± 35 s and the “clot strength, SONOCLOT tracing” value ([1]; second study) was “stronger clot”. The Clotting time ([1]; second study, without silver 588 seconds) was 168 s, the Clotting time [1, 6] was 91 ± 14 s and the “clotting time (FIG. 4, C and D)” value ([2]; 0.25 U/ml heparin, 0.05% or 0.3% silver (I) ion, absence of collagen) was “prolonged clotting time”. The Clotting time ([2]; heparinized blood, without silver 1930 seconds) was 872 s, the “physical characteristics of the clot (clot strength), SONOCLOT tracing” value ([2]; heparinized whole blood) was “stronger clot” and the Perfusion [3, 8] was 18 ± 4 mm. The Perfusion ([3]; Study II, filter paper impregnated with 1% AgNO3, n = 5) was 42 ± 18 mm, the Perfusion [3, 9] was 17 ± 2 mm and the Clotting time [4] was 83 ± 29 s. For the same compound, the Clotting time [5] was 128 ± 32 s.
In the case of heparin [reference compound], the Clotting time ([2]; citrated blood with heparin 2 U/mL, recalcified, silver nitrate 0.05% (in some cases 0.01%), heparinase 1 U/mL, n = 5) is reported as 1930 ± 83 s.
collagen was tested, and the Clotting time [1, 7] was 264 ± 37 s, the Perfusion [3, 8] was 35 ± 23 mm and the Perfusion [3, 9] was 28 ± 10 mm.
